Reference: patent US20260174680A1, “MAMMARY GLAND TISSUE HEALTH MAINTENANCE AGENT HAVING GABA AS ACTIVE INGREDIENT” (SANWA SHURUI CO., LTD., priority 2022, published 2026)

Legend:
mammary gland tissue [1] = test: Animal experiment: E2-induced mammary gland tissue dysplasia and invasion in scid mice; type: in vivo; details: 25 days
Protocol: Ten-week-old Scid mice were intraperitoneally administered with 6 μg of E2 per day for 25 days, and were simultaneously intraperitoneally administered with 6 μg of Equol per day and/or were intraperitoneally administered with 0.5 mg (low) or 5 mg (high) of GABA per day. The fourth mammary gland was sampled 24 hours after the final administration, and photographs are shown of tissue observation by hematoxylin and eosin (H&E) staining (upper row) and Elastica van Gieson (EVG) staining (lower row).
This mouse model system that develops early stage breast cancer is an experimental system developed by the present inventors, and a system in which scid mice, which are a mouse strain with reduced DNA repair ability, are used to be administered estradiol (E2) intraperitoneally for […] to induce mammary gland tissue dysplasia. […] The present invention also uses this experimental system to evaluate the effects of GABA or the combined use of GABA and equol.
Ten-week-old scid mice were intraperitoneally administered PBS as a negative control group, 6 μg/day of E2 as a positive control group, 6 μg of E2+6 μg/day of equol (Eq) in experimental group 1, 6 μg of E2+0.5 mg/day of GABA in experimental group 2, 6 μg of E2+5 mg/day of GABA in experimental group 3, 6 μg of E 2+6 μg of Eq+0.5 mg of GABA in experimental group 4, and 6 μg of E 2+6 μg of Eq+5 mg of GABA in experimental group 5, with six mice in each group, every morning for 25 days. 24 hours after the final administration, the fourth mammary gland was sampled, and the tissue was observed by hematoxylin and eosin (H&E) staining and Elastica van Gieson (EVG) staining.
In addition, the frequency of occurrence of dysplasia in sections of the mammary gland tissue was evaluated.
Mouse (female): C. B-17/Icr-scid/scid Jel was purchased from CLEA Japan.
The E2 used was E2758 manufactured by SIGMA, the Equol (Eq) used was SML2147 manufactured by SIGMA, and the GABA used was A5835 manufactured by SIGMA.

mammary gland tissue [2] = details: equol intraperitoneally, with estradiol administered (Non-Patent Literature 1); cited from earlier work
MCF7 (ATCC HTB-22) cells = test: Cell test: E2-induced DNA double-strand break signals in MCF7 cells (P-Histone H2AX immunostaining); type: cell-based; details: 4 hours
Protocol: After MCF 7 (ATCC HTB-22) cells were cultured, and the medium was removed, 200 μL of PBS adjusted to E2-free, 10 nM of E2, or 10 nM of E2+0.3 μg/mL to 1.1 μg/mL of GABA was added to each well, and the cells were incubated at 37° C. and 5% of CO2 for 4 hours. The cells were visualized by adding a primary histone antibody, and the DNA double-strand break signals per cell were measured by observation under a microscope.
The cultured cells used were MCF7 (ATCC HTB-22). MCF7 cells were cultured for 2 days to 3 days in phenol red-free RPMI 1640 medium containing 10% of fetal bovine serum and 1 nM of E2.
The cells were passaged into phenol red-free RPMI medium containing 10% of charcoal-stripped serum (Charcoal-Stripped FBS, Thermo Fisher) and 1 nM of E 2, and seeded into an 8-well plate (SCS-N28 MAS-Coat, Matsunami) at 400 μL/well. After 1 day to 2 days, the medium on the 8-well plate was removed and replaced with serum-free, phenol red-free RPMI medium, and the cells were starved by culturing for 1 day to align the cell cycle to the G1 phase. […]
The cells were observed under a microscope, the DNA double-strand break signals per cell were measured, and statistical analysis was performed using the Mann-Whitney U-test, with p<0.05 being considered to indicate a significant difference. […]
For each experiment section, DNA double-strand break signals were counted in 100 cells.

[3] = experimental groups 1 to 5: Eq or GABA added to 6 μg/day E2 i.p.

Row | Compound | invasion in mammary gland tissue sections (H&E and EVG staining) (mammary gland tissue [1]; positive control: E2 only, 6 μg/day i.p.) | mammary gland tissue dysplasia (mammary gland tissue [2]) | frequency of occurrence of dysplasia (average of E2-only positive control taken as 100%) (mammary gland tissue [1]; experimental group 1: 6 μg E2 + 6 μg/day equol i.p., negative control 16%) | invasion in mammary gland tissue sections (H&E and EVG staining) (mammary gland tissue [1]; [3]) | frequency of occurrence of dysplasia (average of E2-only positive control taken as 100%) (mammary gland tissue [1]; experimental group 2: 6 μg E2 + 0.5 mg/day GABA i.p.) | frequency of occurrence of dysplasia (average of E2-only positive control taken as 100%) (mammary gland tissue [1]; experimental group 3: 6 μg E2 + 5 mg/day GABA i.p.) | DNA damage (DNA double-strand break signals per cell) (MCF7 (ATCC HTB-22) cells; 10 nM E2 + 1.1 μg/mL GABA, Mann-Whitney U-test, p<0.05) | number of DNA damages (DNA double-strand break signals per cell) (MCF7 (ATCC HTB-22) cells; 10 nM E2 + 0.3 to 1.1 μg/mL GABA)
1 | C[C@]12CC[C@@H]3c4ccc(O)cc4CC[C@H]3[C@@H]1CC[C@@H]2O [E2, estradiol, reference compound] | showed invasion |  |  |  |  |  |  | 
2 | Oc1ccc([C@H]2COc3cc(O)ccc3C2)cc1 [Eq, equol, reference compound] |  | mammary gland tissue dysplasia was inhibited | approximately 58% | no invasion was observed |  |  |  | 
3 | NCCCC(=O)O [GABA, γ-amino butyric acid] |  |  |  | no invasion was observed | 44% | 37% | significantly reduced DNA damage | tended to reduce the number of DNA damages
